Data reported in patent publication US10316017B2, “COT modulators and methods of use thereof” (Gilead Sciences, Inc., priority 2015, dated 2019).

Tests used:
[1] = molecular target: T1, human Cot catalytic domain (30-397 amino acids) (Homo sapiens, UniProt P41279); assay: High Throughput Cot Biochemical Assay (KinEASE TR-FRET); details: Cot KinEASE TR-FRET (HTRF) biochemical assay, 400 μM ATP; read-out: IC50 HTRF
T1 construct: Purified recombinant human Cot catalytic domain (30-397 amino acids) was purchased from Cama Biosciences; purchased Cama Biosciences (so in the source)
T1 sequence (P41279 30-397): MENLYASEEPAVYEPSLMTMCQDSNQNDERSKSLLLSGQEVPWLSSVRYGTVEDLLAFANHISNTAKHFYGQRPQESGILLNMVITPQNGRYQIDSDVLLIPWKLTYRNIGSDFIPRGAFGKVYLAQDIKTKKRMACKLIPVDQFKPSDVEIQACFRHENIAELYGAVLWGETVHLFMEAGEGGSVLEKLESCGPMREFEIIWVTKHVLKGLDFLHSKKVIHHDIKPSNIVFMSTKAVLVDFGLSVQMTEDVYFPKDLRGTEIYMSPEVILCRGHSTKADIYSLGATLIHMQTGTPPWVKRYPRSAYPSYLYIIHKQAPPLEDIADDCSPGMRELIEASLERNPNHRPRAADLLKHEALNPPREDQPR
Method in brief: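 TR-FRET readout: Eu-labeled phospho-specific antibody binds XL665-tagged STK3 peptide after phosphorylation by Cot (aa 30-397, 5 nM). Conditions: 400 μM ATP, 1 μM peptide, MOPS pH 7.0 buffer with MgOAc, DTT, BSA, NP-40, glycerol; 0.1% DMSO.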

[2] = test system: TNFα production in LPS-stimulated human monocytes; assay: Cot Monocyte TNFα Cell Based Assay; details: Homo sapiens, Monocyte, TNFα in LPS-stimulated human monocytes; read-out: EC50 TNF
Method in brief: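 TR-FRET read-out of total secreted TNFα, normalized as % control (unstimulated = 0%, LPS-stimulated = 100%). Cells (5,000/well) were exposed to compound 1 h at 37 °C, then to 50 pg/ml LPS for a further 4 h.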

SMILES | IC50 [1] | EC50 [2]
[2H]C(Nc1cc(Cl)c2ncc(C#N)c(N[C@H](CC)c3ccccc3)c2c1)(c1ccccc1Cl)c1nn[nH]c1C (stereo partly drawn) [Example 326, 8-chloro-6-(((2-chlorophenyl) (5-methyl-1H-1,2,3-triazol-4-yl)methyl-d)amino)-4-(((R)-1-phenylpropyl)amino)quinoline-3-carbonitrile] | 199 nM | 1960 nM
[2H][C@](Nc1cc(Cl)c2ncc(C#N)c(NCC(C)(C)C)c2c1)(c1cccc(C#N)c1)c1cn(-c2cccnc2)nn1 [Example 327, (S)-8-chloro-6-(((3-cyanophenyl)(1-(pyridin-3-yl)-1H-1,2,3-triazo1-4-yl)methyl-d)amino)-4-(neopentylamino)quinoline-3-carbonitrile] | 4 nM | 166 nM
N#Cc1ccccc1[C@H](Nc1cc(Cl)c2ncc(C#N)c(Nc3cnc(F)c(F)c3)c2c1)c1c[nH]nn1 [Example 328, (S)-8-chloro-6-(((2-cyanophenyl)(1H-1,2,3-triazol-4-yl)methyl)amino)-4-((5,6-difluoropyridin-3-yl)amino)quinoline-3-carbonitrile] | 24 nM | 1240 nM
[2H][C@](Nc1cc(Cl)c2ncc(C#N)c(Nc3cnc(F)c(F)c3)c2c1)(c1ccc(F)cc1)c1cn(Cc2c(F)cccc2F)nn1 [Example 329, (S)-8-chloro-6-(((1-(2,6-difluorobenzyl)-1H-1,2,3-triazol-4-yl)(4-fluorophenyl)methyl-d)amino)-4-((5,6-difluoropyridin-3-yl)amino)quinoline-3-carbonitrile] | 32 nM | 808 nM
[2H][C@](Nc1cc(Cl)c2ncc(C#N)c(Nc3cnc(F)c(F)c3)c2c1)(c1ccc(F)cc1)c1cnn(CF)n1 [Example 330, (S)-8-chloro-4-((5,6-difluoropyridin-3-yl)amino)-6-(((2-(fluoromethyl)-2H-1,2,3-triazol-4-yl)(4-fluorophenyl)methyl-d)amino)quinoline-3-carbonitrile] | 1420 nM | > 10000 nM
[2H][C@](Nc1cc(Cl)c2ncc(C#N)c(N[C@H](CC#N)c3ccccc3)c2c1)(c1ccc(F)cc1)c1cn(C2CC2)nn1 [Example 331, 8-chloro-4-(((R)-2-cyano-1-phenylethyl)amino)-6-(((S)-(1-cyclopropyl-1H-1,2,3-triazol-4-yl)(4-fluorophenyl)methyl-d)amino)quinoline-3-carbonitrile] | 4 nM | 75 nM
[2H][C@](Nc1cc(Cl)c2ncc(C#N)c(NCC3(C)CCOCC3)c2c1)(c1ccc(F)cc1)c1cn(C2CC2)nn1 [Example 333, (S)-8-chloro-6-(((1-cyclopropyl-1H-1,2,3-triazol-4-yl)(4-fluorophenyl)methyl-d)amino)-4-(((4-methyltetrahydro-2H-pyran-4-yl)methyl)amino) quinoline-3-carbonitrile] | 9 nM | 260 nM
[2H][C@](Nc1cc(Cl)c2ncc(C#N)c(N[C@@H](CC#N)c3ccccc3)c2c1)(c1ccc(F)cc1)c1cn(C2CC2)nn1 [Example 334, 8-chloro-4-(((S)-2-cyano-1-phenylethyl)amino)-6-(((S)-(1-cyclopropyl-1H-1,2,3-triazol-4-yl)(4-fluorophenyl)methyl-d)amino)quinoline-3-carbonitrile] | 258 nM | > 10000 nM
[2H][C@](Nc1cc(Cl)c2ncc(C#N)c(NCC(C)(C)C)c2c1)(c1ccc(F)cc1)c1cn(-c2cccnc2)nn1 [Example 335, (S)-8-chloro-6-(((4-fluorophenyl)(1-(pyridin-3-yl)-1H-1,2,3-triazol-4-yl)methyl-d)amino)-4-(neopentylamino)quinoline-3-carbonitrile] | 40 nM | 204 nM
N#Cc1cnc2c(Cl)cc(N[C@@H](c3ccc(F)cc3)c3cn(-c4ccccc4C(F)(F)F)nn3)cc2c1Nc1cnc(F)c(F)c1 [Example 336, (S)-8-chloro-4-((5,6-difluoropyridin-3-yl)amino)-6-(((4-fluorophenyl)(1-(2-(trifluoromethyl)phenyl)-1H-1,2,3-triazol-4-yl)methyl)amino)quinoline-3-carbonitrile] | 71 nM | 619 nM
N#Cc1cnc2c(Cl)cc(N[C@@H](c3ccc(F)cc3)c3cn(-c4ccccc4F)nn3)cc2c1Nc1cnc(F)c(F)c1 [Example 337, (S)-8-chloro-4-((5,6-difluoropyridin-3-yl)amino)-6-(((4-fluorophenyl) (1-(2-fluorophenyl)-1H-1,2,3-triazol-4-yl)methyl)amino)quinoline-3-carbonitrile] | 49 nM | 674 nM
[2H][C@](Nc1cc(Cl)c2ncc(C#N)c(Nc3cnc(F)c(Cl)c3)c2c1)(c1ccc(F)cc1)c1cn(C2CC2)nn1 [Example 338, (S)-8-chloro-4-((5-chloro-6-fluoropyridin-3-yl)amino)-6-(((1-cyclopropyl-1H-1,2,3-triazol-4-yl)(4-fluorophenyl)methyl-d)amino)quinoline-3-carbonitrile] | 8 nM | 183 nM
[2H][C@](Nc1cc(Cl)c2ncc(C#N)c(Nc3cncc(F)c3)c2c1)(c1ccc(F)cc1)c1cn(C(C)C)nn1 [Example 339, (S)-8-chloro-6-(((4-fluorophenyl)(1-isopropyl-1H-1,2,3-triazol-4-yl)methyl-d)amino)-4-((5-fluoropyridin-3-yl)amino)quinoline-3-carbonitrile] | 55 nM | 1170 nM
[2H][C@](Nc1cc(Cl)c2ncc(C#N)c(N[C@H](CC)c3ccccc3)c2c1)(c1cccc(C#N)c1)c1cn(C2CC2)nn1 [Example 340, 8-chloro-6-(((S)-(3-cyanophenyl)(1-cyclopropyl-1H-1,2,3-triazol-4-yl)methyl-d)amino)-4-(((R)-1-phenylpropyl)amino)quinoline-3-carbonitrile] | 2 nM | 57 nM
[2H][C@](Nc1cc(Cl)c2ncc(C#N)c(NCC(C)(C)C)c2c1)(c1cccc(C#N)c1)c1cn(C2CC2)nn1 [Example 341, (S)-8-chloro-6-(((3-cyanophenyl)(1-cyclopropyl-1H-1,2,3-triazol-4-yl)methyl-d)amino)-4-(neopentylamino)quinoline-3-carbonitrile] | 1 nM | 71 nM
[2H][C@](Nc1cc(Cl)c2ncc(C#N)c(Nc3cnc(F)c(F)c3)c2c1)(c1ccc(F)cc1)c1cn(Cc2ccccc2)nn1 [Example 342, (S)-6-(((1-benzyl-1H-1,2,3-triazol-4-yl)(4-fluorophenyl)methyl-d)amino)-8-chloro-4-((5,6-difluoropyridin-3-yl)amino)quinoline-3-carbonitrile] | 64 nM | 1230 nM
[2H][C@@](Nc1cc(Cl)c2ncc(C#N)c(NCC(C)(C)C)c2c1)(c1cn(C2CC2)nn1)c1ccccc1Cl [Example 343, (S)-8-chloro-6-(((2-chlorophenyl)(1-cyclopropyl-1H-1,2,3-triazol-4-yl)methyl-d)amino)-4-(neopentylamino) quinoline-3-carbonitrile] | 13 nM | 151 nM
[2H]C(Nc1cc(Cl)c2ncc(C#N)c(NCC(C)(C)C)c2c1)(c1ccc(F)cc1)c1cn(C2CC2)cn1 (stereo not drawn) [Example 344, 8-chloro-6-(((1-cyclopropyl-1H-imidazol-4-yl)(4-fluorophenyl)methyl-d)amino)-4-(neopentylamino) quinoline-3-carbonitrile] | 89 nM | 2220 nM
